Laboratory results published in patent US20200247812A1 (Integral Biosciences Private Limited, priority 2018, published 2020).

Tests used:
Format in all cases: cell-based
A427 = experiment: Cell viability assay (resazurin), A427; settings: Homo sapiens, A-427, 72-144 hr
Protocol: (§1) Different cell lines such as pancreatic, (MIA PaCa-2; ATCC®CRL-1420™ & and Panc-1; CRL-1469™), liver carcinoma (HepG2; ATCC® HB-8065™), lung epithelial carcinoma (A549; ATCC® CCL-185™) and others were seeded in their respective medium (DMEM, Cat #10569044, MEM, Cat #41090036; RPMI, Cat #22400089; all with 10% FBS, Gibco, ThermoFisher) at a cell count of 3000 cells per 100 μl per well in a 96 well edge plate (167425; ThermoFisher). Cells were allowed to grow at 37° C. for 24 hr in 5% CO2 (culture conditions) in a Nuaire incubator (humidified). Serially diluted compounds (100 μl) were added to the culture plate 24 hr later and the cultures were further incubated in culture conditions for specified time depending on doubling time of specific cell line (ranging from 72-144 hr). Experiment was terminated at the completion of incubation time with the drug by replacing the medium with 100 μl of 1 mM of resazurin (R7017; Sigma) prepared in respective culture medium and the plates were further incubated in culture conditions for 4 hr. Fluorescence was then measured using a multimodal plate reader (Biotek Synergy Neo) at an excitation wavelength of 535 nm and emission wavelength of 590 nm to obtain relative fluorescence units. Data analysis was done by subtracting the background fluorescence (only medium blank) value from each reading and then normalizing with the vehicle control (DMSO treated cells) to obtain percent survival/proliferation. Percent survival at different doses was used to calculate IC50 by fitting the curve to the “four-parameter variable slope logistic model” using Prism Graph Pad.

HCT116 = experiment: Cell viability assay (resazurin), HCT116; settings: Homo sapiens, HCT-116, 72-144 hr
Protocol: as §1

THP1 = experiment: Cell viability assay (resazurin), THP1; settings: Homo sapiens, THP-1, 72-144 hr
Protocol: as §1

MV-4-11 = experiment: Cell viability assay (resazurin), MV-4-11; settings: Homo sapiens, MV4-11, 72-144 hr
Protocol: as §1

MCF7 = experiment: Cell viability assay (resazurin), MCF7; settings: Homo sapiens, 72-144 hr
Protocol: as §1

MiaPaCa-2 = experiment: Cell viability assay (resazurin), MiaPaCa-2; settings: Homo sapiens, MIA PaCa-2, 72-144 hr
Protocol: (§2) Different cell lines such as pancreatic, (MIA PaCa-2; ATCC®CRL-1420™ & and Panc-1; CRL-1469™), liver carcinoma (HepG2; ATCC® HB-8065™), lung epithelial carcinoma (A549; ATCC® CCL-185™) and others were seeded in their respective medium (DMEM, Cat #10569044, MEM, Cat #41090036; RPMI, Cat #22400089; all with 10% FBS, Gibco, ThermoFisher) at a cell count of 3000 cells per 100 μl per well in a 96 well edge plate (167425; ThermoFisher). Cells were allowed to grow at 37° C. for 24 hr in 5% CO2 (culture conditions) in a Nuaire incubator (humidified). Serially diluted compounds (100 μl) were added to the culture plate 24 hr later and the cultures were further incubated in culture conditions for specified time depending on doubling time of specific cell line (ranging from 72-144 hr). […] Fluorescence was then measured using a multimodal plate reader (Biotek Synergy Neo) at an excitation wavelength of 535 nm and emission wavelength of 590 nm to obtain relative fluorescence units. Data analysis was done by subtracting the background fluorescence (only medium blank) value from each reading and then normalizing with the vehicle control (DMSO treated cells) to obtain percent survival/proliferation. […]

HepG2 = experiment: Cell viability assay (resazurin), HepG2; settings: Homo sapiens, 72-144 hr
Protocol: as §1

[1] = tested on: phosphorylation of Smad-2 in THP-1 cells; experiment: Inhibition of phosphorylation of Smad-2 in THP-1 cells (Phospho-Smad2 ELISA); settings: 1.5 h, human TGF-β 20 ng/ml, 90 min, read-out: pSmad2 IC50
Protocol: IC50 values of compounds for determining inhibition of phosphorylation of Smad-2 in THP-1 cells (ATCC, Cat # ATCC® TIB-202™) cultured in RPMI medium, (Cat #22400089; with 10% FBS, Gibco, ThermoFisher). THP-1 cells (1.0×10^6 cells/well; 6 well plate) were incubated with serial dilutions of compounds (3 fold, 5 point dose response starting at 10 μM) for 60 min at 37° C., 5% CO2 in an incubator (cell culture conditions) prior to treating them with Recombinant Human TGF-β (20 ng/ml soluble; Cat #100-21, Peprotech) for 90 min. The cells were then pelleted and processed for protein estimation and evaluation of pSmad using ELISA kit from Cell Signaling (PathScan(R) Phospho-Smad2 (Ser465/467) Sandwich ELISA; Cat #7348C) as per manufacturer's protocol. Data analysis was done by subtracting the background absorbance (only negative control) value from each reading and then normalizing with the vehicle control (DMSO treated cells) to obtain percent levels of pSmad-2. Percent inhibition thus obtained (by subtracting expression levels of pSmad from 100) at different doses was used to calculate IC50 by fitting the curve to the “four-parameter variable slope logistic model” using Prism Graph Pad.

Panc-10.05 = experiment: Cell viability assay (resazurin), Panc-10.05; settings: Homo sapiens, Panc1005, 72-144 hr
Protocol: as §1

A549 = experiment: Cell viability assay (resazurin), A549; settings: Homo sapiens, 72-144 hr
Protocol: as §1

mouse splenocytes = experiment: Mouse splenocyte viability assay (CD3e/CD28 activated, resazurin); settings: CD3e/CD28 activated Balb/c splenocytes, 72 hr
Protocol: IC50 values of compounds for determining viability in CD3e/CD28 activated mouse splenocytes isolated from Balb/c mice cultured in RPMI, Cat #22400089; with 10% FBS, Gibco, ThermoFisher). Mouse splenocytes (2×10^5 cells/well) were activated with Anti-mouse CD3e (2.5 μg/ml, coated overnight at 4° C.; Cat #14-0032-82, eBioscience) and then incubated with serial dilutions of compounds (3 fold, 8 point dose response starting at 30 μM) for 30 min at 37° C., 5% CO2 in an incubator (cell culture conditions) prior to treating them with Anti-mouse CD28 (0.1 μg/ml soluble; Cat #16-0281-82, eBiosciences). Splenocytes were further incubated under cell culture conditions for 72 hr following which experiment was terminated by replacing the medium with 100 μl of 1 mM of resazurin (R7017; Sigma) prepared in respective culture medium and the plates were further incubated in culture conditions for 4 hr. Fluorescence was then measured using a multimodal plate reader (Biotek Synergy Neo) at an excitation wavelength of 535 nm and emission wavelength of 590 nm to obtain relative fluorescence units. Data analysis was done by subtracting the background fluorescence (only medium blank) value from each reading and then normalizing with the average of vehicle control (DMSO treated cells) to obtain percent survival/proliferation. […]

HT29 = experiment: Cell viability assay (resazurin), HT29; settings: Homo sapiens, HT-29, 72-144 hr
Protocol: as §2

IC50 (HCT116) [µM]	IC50 (THP1) [µM]	IC50 (MV-4-11) [µM]	IC50 (MCF7) [µM]	IC50 (MiaPaCa-2) [µM]	IC50 (HepG2) [µM]	IC50 [1] [µM]	IC50 (Panc-10.05) [µM]	IC50 (A549) [µM]	IC50 (HT29) [µM]	SMILES	IC50 (A427) [µM]	IC50 (mouse splenocytes) [µM]
> 30	> 30	19.9	> 10	> 30	> 30	0.123	> 30	> 30	14.7	CC(=O)Nc1cc(Nc2cc(-c3cc(Cl)ccc3F)c(=O)[nH]c2C(C)C)ccn1 [Compound 1.48, N-(4-((5-(5-chloro-2-fluorophenyl)-2-isopropyl-6-oxo-1,6-dihydropyridin-3-yl)amino)pyridin-2-yl)acetamide]	> 30	> 30
1.97	13.4	0.7	> 10	> 30	> 30	0.539	4.72	> 30	3.82	CC(C)c1[nH]c(=O)c(-c2cc(Cl)ccc2F)cc1Nc1ccnc2[nH]ccc12 [Compound 1.50, 5-((1H-pyrrolo[2,3-b]pyridin-4-yl)amino)-3-(5-chloro-2-fluorophenyl)-6-isopropylpyridin-2(1H)-one]	3.55	> 30
